In patent US20240041042A1, “1-(PYRIDYL)-5-AZINYLPYRAZOLE DERIVATIVES, AND THEIR USE FOR CONTROL OF UNDESIRED PLANT GROWTH” (Bayer Aktiengesellschaft, priority 2020, published 2024):
Like-named read-outs stand apart in the source and are kept apart here. Blank lines part the entries; values can stand above or below the compound they belong to.

Experiments:
Type in all cases: in vivo
[1] = system: Viola tricolor (VIOTR); test: Post-emergence herbicidal action against VIOTR
Procedure, shortened: (§1)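 Greenhouse plants sprayed at the one-leaf stage, 2–3 weeks after sowing, with WP or EC formulations plus 0.5% additive at 600 l/ha water. Activity rated visually after about 3 weeks versus untreated controls (100% = dead, 0% = like control), at 320 g/ha or lower.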

[2] = system: Echinochloa crus-galli (ECHCG); test: Post-emergence herbicidal action against ECHCG
Procedure, shortened: as §1

[3] = system: Pharbitis purpurea (PHBPU); test: Post-emergence herbicidal action against PHBPU
Procedure, shortened: as §1

[4] = system: Digitaria sanguinalis (DIGSA); test: Post-emergence herbicidal action against DIGSA; details: visual rating about 3 weeks after treatment
Procedure: Seeds of monocotyledonous and dicotyledonous weeds and crop plants are placed in sandy loam in plastic or organic planting pots, covered with soil and cultivated in a greenhouse under controlled growth conditions. 2 to 3 weeks after sowing, the test plants are treated at the one-leaf stage. The compounds of the invention, formulated in the form of wettable powders (WP) or as emulsion concentrates (EC), are then sprayed onto the green parts of the plants as aqueous suspension or emulsion with addition of 0.5% additive at a water application rate of 600 l/ha (converted). After the test plants have been kept in the greenhouse under optimum growth conditions for about 3 weeks, the activity of the preparations is rated visually in comparison to untreated controls. For example, 100% activity=the plants have died, 0% activity=like control plants.
Tables B1 to B13 below show the effects of selected compounds of the general formula (I) according to Table 1 on various harmful plants and at an application rate corresponding to 320 g/ha or lower, which were obtained by the experimental procedure mentioned above. The appendices “a”, “b” and “c” give differentiation by dosage used with otherwise the same harmful plants tested.

[5] = system: Alopecurus myosuroides (ALOMY); test: Post-emergence herbicidal action against ALOMY; details: visual rating about 3 weeks after treatment vs untreated controls (100% = plants have died, 0% = like control plants)
Procedure, shortened: as §1

[6] = system: Oryza sativa (ORYSA); details: crop plant compatibility
Procedure, shortened: (§2)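 Effects were read visually as % versus untreated controls (0% = no effect, 100% = death) about 3 weeks post-treatment. Application was a post-emergence spray at the one-leaf stage of WP/EC formulations with 0.5% additive at 600 l/ha. Different dosages are denoted a, b and c.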

[7] = system: Zea mays (ZEAMX); details: for Post-emergence action against ZEAMX in % (crop plant compatibility): 20 g/ha, effect in comparison to untreated controls; for Post-emergence action against ZEAMX in %: crop plant compatibility, effect vs untreated controls
Procedure, shortened: as §2

[8] = system: Setaria viridis (SETVI); test: Post-emergence herbicidal action against SETVI
Procedure, shortened: as §1

[9] = system: Lolium rigidum (LOLRI); test: Post-emergence herbicidal action against LOLRI
Procedure, shortened: as §1

[10] = system: Polygonum convolvulus (POLCO); test: Post-emergence herbicidal action against POLCO
Procedure, shortened: as §1

[11] = system: Verconica persica (VERPE); test: Post-emergence herbicidal action against VERPE
Procedure, shortened: as §1

[12] = system: Avena fatua (AVEFA); test: Post-emergence herbicidal action against AVEFA; details: visual rating about 3 weeks after treatment
Procedure, shortened: as §1

[13] = system: Amaranthus retroflexus (AMARE); test: Post-emergence herbicidal action against AMARE
Procedure, shortened: as §1

[14] = system: Matricaria inodora (MATIN); test: Post-emergence herbicidal action against MATIN; details: dosage 80 g/ha
Procedure, shortened: as §1

[15] = system: Lolium rigidum (LOLRI); test: Pre-emergence herbicidal action against LOLRI; details: dosage 320 g/ha
Procedure, shortened: (§3)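 Greenhouse pot trial: seeds sown, soil-covered, sprayed before emergence with compound in water (0.5% additive; 600 l/ha; ≤320 g/ha). Scoring visual, ~3 weeks, 0–100% scale vs untreated.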

[16] = system: Setaria viridis (SETVI); test: Pre-emergence herbicidal action against SETVI
Procedure, shortened: as §3

[17] = system: Avena fatua (AVEFA); test: Pre-emergence herbicidal action against AVEFA; details: visual scoring after about 3 weeks vs untreated controls
Procedure, shortened: as §3

[18] = system: Abutilon theophrasti (ABUTH); test: Post-emergence herbicidal action against ABUTH; details: visual rating about 3 weeks after treatment vs untreated controls (100% = plants have died, 0% = like control plants)
Procedure, shortened: as §1

[19] = system: Viola tricolor (VIOTR); test: Pre-emergence herbicidal action against VIOTR; details: 320 g/ha, Viola tricolor
Procedure, shortened: as §3

[20] = system: Pharbitis purpurea (PHBPU); test: Pre-emergence herbicidal action against PHBPU; details: dosage 320 g/ha
Procedure, shortened: as §3

[21] = system: Alopecurus myosuroides (ALOMY); test: Pre-emergence herbicidal action against ALOMY; details: scored visually after about 3 weeks, 100% = plants have died
Procedure, shortened: as §3

[22] = system: Amaranthus retroflexus (AMARE); test: Pre-emergence herbicidal action against AMARE; details: visual scoring after about 3 weeks vs untreated controls
Procedure, shortened: as §3

[23] = system: Matricaria inodora (MATIN); test: Pre-emergence herbicidal action against MATIN
Procedure, shortened: as §3

[24] = system: Polygonum convolvulus (POLCO); test: Pre-emergence herbicidal action against POLCO; details: dosage 320 g/ha
Procedure, shortened: as §3

[25] = system: Echinochloa crus-galli (ECHCG); test: Pre-emergence herbicidal action against ECHCG
Procedure, shortened: as §3

[26] = system: Verconica persica (VERPE); test: Pre-emergence herbicidal action against VERPE; details: dosage 320 g/ha
Procedure, shortened: as §3

[27] = 20 g/ha, effect vs untreated controls
[28] = 80 g/ha, effect in comparison to untreated controls

Post-emergence action against ORYSA in % [6, 27]: 0%
Post-emergence action against ORYSA in % [6, 28]: 10%
Post-emergence action against ZEAMX in % (crop plant compatibility) [7]: 0%
Post-emergence action against ZEAMX in % ([7]; 80 g/ha): 10%
Compound: COC(=O)CCOC(=O)[C@@H](C)Oc1nn(-c2ccccn2)c(-c2ccc(F)nc2)c1Br [Example I-290]
Post-emergence action against VIOTR in % ([1]; 320 g/ha): 80%
Post-emergence action against ECHCG in % ([2]; dosage 80 g/ha): 80%
Post-emergence action against ECHCG in % ([2]; dosage 320 g/ha): 90%
Post-emergence action against PHBPU in % ([3]; dosage 320 g/ha): 90%
Post-emergence action against DIGSA in % ([4]; 80 g/ha): 90%
Post-emergence action against DIGSA in % ([4]; 320 g/ha): 90%
Post-emergence action against ALOMY in % ([5]; 320 g/ha): 90%
Post-emergence action against SETVI in % ([8]; dosage 80 g/ha): 90%
Post-emergence action against SETVI in % ([8]; dosage 320 g/ha): 90%
Post-emergence action against LOLRI in % ([9]; dosage 320 g/ha): 80%
Post-emergence action against POLCO in % ([10]; dosage 320 g/ha): 80%
Post-emergence action against VERPE in % ([11]; 320 g/ha, VERPE): 80%
Post-emergence action against VERPE in % ([11]; dosage 80 g/ha): 80%

Post-emergence action against ORYSA in % [6, 27]: 10%
Post-emergence action against ORYSA in % [6, 28]: 20%
Post-emergence action against ZEAMX in % (crop plant compatibility) [7]: 0%
Post-emergence action against ZEAMX in % ([7]; 80 g/ha): 10%
Compound: COC(=O)C(C)OC(=O)C(C)Oc1nn(-c2ccccn2)c(-c2ccc(F)nc2)c1Cl (stereo not shown) [Example I-299]
Post-emergence action against VIOTR in % ([1]; 80 g/ha): 80%
Post-emergence action against VIOTR in % ([1]; 320 g/ha): 90%
Post-emergence action against AVEFA in % ([12]; 80 g/ha): 80%
Post-emergence action against AVEFA in % ([12]; 320 g/ha): 80%
Post-emergence action against ECHCG in % ([2]; dosage 80 g/ha): 80%
Post-emergence action against ECHCG in % ([2]; dosage 320 g/ha): 90%
Post-emergence action against AMARE in % ([13]; 320 g/ha, visual rating about 3 weeks after treatment): 80%
Post-emergence action against PHBPU in % ([3]; dosage 320 g/ha): 90%
Post-emergence action against DIGSA in % ([4]; 80 g/ha): 80%
Post-emergence action against DIGSA in % ([4]; 320 g/ha): 90%
Post-emergence action against ALOMY in % ([5]; 80 g/ha): 80%
Post-emergence action against ALOMY in % ([5]; 320 g/ha): 90%
Post-emergence action against SETVI in % ([8]; dosage 320 g/ha): 90%
Post-emergence action against LOLRI in % ([9]; dosage 80 g/ha): 80%
Post-emergence action against LOLRI in % ([9]; dosage 320 g/ha): 80%
Post-emergence action against POLCO in % ([10]; dosage 320 g/ha): 80%
Post-emergence action against VERPE in % ([11]; 320 g/ha, VERPE): 80%
Post-emergence action against VERPE in % ([11]; dosage 80 g/ha): 80%

Post-emergence action against ORYSA in % [6, 27]: 0%
Post-emergence action against ZEAMX in % (crop plant compatibility) [7]: 10%
Compound: CCOC(=O)COc1nn(-c2ccccn2)c(-c2ccc(F)nc2)c1Cl [Example I-100]
Post-emergence action against MATIN in % [14]: 90%
Post-emergence action against AVEFA in % ([12]; 80 g/ha): 100%
Post-emergence action against ECHCG in % ([2]; dosage 80 g/ha): 90%
Post-emergence action against AMARE in % ([13]; 80 g/ha, visual rating about 3 weeks after treatment vs untreated controls (100% = plants have died, 0% = like control plants)): 90%
Post-emergence action against PHBPU in % ([3]; dosage 80 g/ha): 90%
Pre-emergence action against LOLRI in % [15]: 100%
Pre-emergence action against SETVI in % ([16]; dosage 80 g/ha): 90%
Pre-emergence action against SETVI in % ([16]; dosage 320 g/ha): 100%
Pre-emergence action against AVEFA in % ([17]; 80 g/ha): 80%
Pre-emergence action against AVEFA in % ([17]; 320 g/ha): 90%
Post-emergence action against ALOMY in % ([5]; 80 g/ha): 100%
Post-emergence action against ABUTH in % ([18]; 80 g/ha): 80%
Pre-emergence action against VIOTR in % [19]: 90%
Pre-emergence action against PHBPU in % [20]: 90%
Pre-emergence action against ALOMY ([21]; 80 g/ha): 100%
Pre-emergence action against ALOMY ([21]; 320 g/ha): 100%
Pre-emergence action against AMARE in % ([22]; 80 g/ha): 90%
Pre-emergence action against AMARE in % ([22]; 320 g/ha): 100%
Pre-emergence action against MATIN in % ([23]; dosage 80 g/ha): 80%
Pre-emergence action against MATIN in % ([23]; dosage 320 g/ha): 80%
Pre-emergence action against POLCO in % [24]: 90%
Post-emergence action against SETVI in % ([8]; dosage 80 g/ha): 80%
Pre-emergence action against ECHCG in % ([25]; dosage 80 g/ha): 80%
Pre-emergence action against ECHCG in % ([25]; dosage 320 g/ha): 100%
Post-emergence action against LOLRI in % ([9]; dosage 80 g/ha): 80%
Post-emergence action against POLCO in % ([10]; dosage 80 g/ha): 90%
Pre-emergence action against VERPE in % [26]: 100%
Post-emergence action against VERPE in % ([11]; dosage 80 g/ha): 80%

Post-emergence action against ORYSA in % [6, 27]: 0%
Post-emergence action against ORYSA in % [6, 28]: 10%
Post-emergence action against ZEAMX in % (crop plant compatibility) [7]: 0%
Post-emergence action against ZEAMX in % ([7]; 80 g/ha): 0%
Post-emergence action against ZEAMX in % ([7]; 320 g/ha): 20%
Compound: CCOC(=O)[C@@H](C)Oc1nn(-c2ncccc2F)c(-c2ccnc(F)c2)c1Br [Example I-133]
Post-emergence action against VIOTR in % ([1]; 80 g/ha): 80%
Post-emergence action against VIOTR in % ([1]; 320 g/ha): 90%
Post-emergence action against AVEFA in % ([12]; 320 g/ha): 80%
Post-emergence action against ECHCG in % ([2]; dosage 320 g/ha): 90%
Post-emergence action against PHBPU in % ([3]; dosage 320 g/ha): 80%
Post-emergence action against DIGSA in % ([4]; 320 g/ha): 80%
Post-emergence action against ALOMY in % ([5]; 320 g/ha): 90%
Post-emergence action against ABUTH in % ([18]; 320 g/ha): 80%
Post-emergence action against SETVI in % ([8]; dosage 320 g/ha): 80%
Post-emergence action against LOLRI in % ([9]; dosage 320 g/ha): 90%
Post-emergence action against POLCO in % ([10]; dosage 80 g/ha): 80%
Post-emergence action against POLCO in % ([10]; dosage 320 g/ha): 80%
Post-emergence action against VERPE in % ([11]; 320 g/ha, VERPE): 80%
Post-emergence action against VERPE in % ([11]; dosage 80 g/ha): 80%
